Series [1] concerns larvae of the mustard beetle (Phaedon cochleariae). In words: Phaedon cochleariae spray test (PHAECO). In kind it is in vivo. Conditions: Chinese cabbage leaf discs, after 7 days. How it is done:
H. Phaedon cochleariae-spray Test (PHAECO)
Solvents: 78.0 parts by weight of acetone
(§1) • 1.5 parts by weight of dimethylformamide Emulsifier: alkylaryl polyglycol ether
(§2) To produce a suitable preparation of active compound, 1 part by weight of active compound is dissolved using the stated parts by weight of solvent and made up with water comprising an emulsifier concentration of 1000 ppm until the desired concentration is reached. To produce further test concentrations, the preparation is diluted with emulsifier-containing water.
After 7 days, the efficacy in % is determined. 100% means that all of the beetle larvae have been killed; 0% means that none of the beetle larvae have been killed.

Series [2] relates to greenhouse red spider mite (Tetranychus urticae). In words: Tetranychus urticae spray test, OP-resistant (TETRUR). In kind it is in vivo. Conditions: bean leaf discs, after 6 days. On the procedure: J. Tetranychus urticae-spray Test, OP-Resistant (TETRUR)
(§3) Solvent: 78.0 parts by weight of acetone
as §1, §2
Discs of bean leaves (Phaseolus vulgaris) which are infested by all stages of the greenhouse red spider mite (Tetranychus urticae) are sprayed with an active compound preparation of the desired concentration.
After 6 days, the efficacy in % is determined. 100% means that all of the spider mites have been killed; 0% means that none of the spider mites have been killed.

Series [3] has as its system caterpillars of the armyworm (Spodoptera frugiperda). In words: Spodoptera frugiperda spray test (SPODFR). The class given is in vivo. Conditions: maize leaf discs, after 7 days. On the procedure: I. Spodoptera frugiperda-spray Test (SPODFR)
as §3, §1, §2
Leaf discs of maize (Zea mays) are sprayed with an active compound preparation of the desired concentration and, after drying, populated with caterpillars of the armyworm (Spodoptera frugiperda).
After 7 days, the efficacy in % is determined. 100% means that all of the caterpillars have been killed; 0% means that none of the caterpillars have been killed.

Series [4] is described as follows: logP determination by HPLC on a reversed-phase column (C18), EEC Directive 79/831 Annex V.A8. Conditions: HPLC on reversed-phase column (C18), acetonitrile/water with formic acid, EEC Directive 79/831 Annex V.A8. The class given is physicochemical. How it is done: (§4) ^a) Note regarding the determination of the logP values and mass detection: The determination of the given logP values was carried out in accordance with EEC Directive 79/831 Annex V.A8 by HPLC (High Performance Liquid Chromatography) on a reversed-phase column (C18). Agilent 1100 LC system; 50*4.6 Zorbax Eclipse Plus C18 1.8 micron; mobile phase A: acetonitrile (0.1% formic acid); mobile phase B: water (0.09% formic acid); linear gradient from 10% acetonitrile to 95% acetonitrile in 4.25 min, then 95% acetonitrile for a further 1.25 min; oven temperature 55° C.; flow rate: 2.0 ml/min. Mass detection is carried out via an Agilend MSD system.
as §4, with “^*)” for “^a)”

Series [5] deals with adult cat fleas (Ctenocephalides felis). In words: Ctenocephalides felis in vitro contact test with adult cat fleas (T1). Conditions: after 48 h. How it is done: T1. Ctenocephalides felis—in vitro Contact Tests with Adult Cat Fleas
For the coating of the test tubes, initially 9 mg of active compound are dissolved in 1 ml of acetone p.a. and then diluted with acetone p.a. to the desired concentration. By turning and rocking on an orbital shaker (2 h of rocking rotation at 30 rpm), 250 μl of the solution are distributed homogeneously on the internal walls and the floor of a 25 ml test tube. At 900 ppm active compound solution and 44.7 cm^2 internal surface, an area dose of 5 μg/cm^2 is achieved for homogeneous distribution.
After evaporation of the solvent, the tubes are populated with 5-10 adult cat fleas (Ctenocephalides felis), sealed with a perforated plastic lid and incubated in a horizontal position at room temperature and ambient humidity. After 48 h, the efficacy is determined. To this end, the test tubes are stood upright and the fleas are knocked to the floor of the tube. Fleas which remain motionless on the floor or move in an uncoordinated manner are considered to be dead or moribund.
An efficacy of 100% means that all fleas were dead or moribund. 0% efficacy means that none of the fleas had been damaged.

Results on 24 molecules are retold here after patent US9487489B2, “Halogen-substituted pyrazole derivatives as pest-control agents” (BAYER CROPSCIENCE AKTIENGESELLSCHAFT, priority 2013, dated 2016).

For orientation: logP means a log measure of how a compound divides between an organic and an aqueous phase. Low values mean lower lipophilicity, high ones higher lipophilicity.

With `Cn1nc(C(F)(F)C(F)(F)F)c(C(F)(F)F)c1-n1cc(-c2ccc(Cl)c(C(=O)NC3(C)CC3)c2)cn1` [Ic-200], the efficacy in % in series [1] (application rate 500 g/ha), in series [2] (application rate 500 g/ha) and in series [3] (application rate 500 g/ha) was 100% each time. In series [4], the logP was 4.12.
`Cc1ccc(-c2cnn(-c3c(C(F)(F)F)c(C(F)(F)C(F)(F)F)nn3C)c2)cc1C(=O)Nc1ccc(F)cc1` [Ic-131]: the efficacy in % in series [1] (application rate 100 g/ha), in series [2] (application rate 100 g/ha) and in series [3] (application rate 100 g/ha) was 100% in each case. Also, the logP in series [4] amounted to 4.57.
Regarding `Cn1nc(C(F)(F)F)c(C(F)(F)F)c1-n1cc(-c2ccc(Cl)c(C(=O)NC3CC3F)c2)cn1` (stereo not shown) [Ic-177], the efficacy in % in series [1] (application rate 100 g/ha), in series [2] (application rate 100 g/ha) and in series [3] (application rate 100 g/ha) was 100% in each case. The molecule further yielded a logP in series [4] of 3.41.
In the case of `Cn1nc(C(F)(F)C(F)(F)F)c(C(F)(F)F)c1-n1cc(-c2ccc(Cl)c(C(=O)NC3(C#N)CSC3)c2)cn1` [Ic-128], the efficacy in % in series [1] (application rate 100 g/ha), in series [2] (application rate 100 g/ha) and in series [3] (application rate 100 g/ha) was 100% each time. Moreover, in series [4], the logP is 4.38.
In the case of `CSC1CCC1NC(=O)c1cc(-c2cnn(-c3c(C(F)(F)F)c(C(F)(F)C(F)(F)F)nn3C)c2)ccc1Cl` (stereo not shown) [Ic-119], the values for the efficacy in % in series [1] (application rate 100 g/ha), in series [2] (application rate 100 g/ha) and in series [3] (application rate 100 g/ha) were 100%, 100% and 83%, respectively. Moreover, the logP in series [4] is on record as 4.52.
Turning to `Cn1nc(C(F)(F)C(F)(F)F)c(C(F)(F)F)c1-n1cc(-c2cccc(C(=O)NC3(C#N)CC3)n2)cn1` [Ic-105], the results for the efficacy in % in series [1] (application rate 500 g/ha), in series [2] (application rate 500 g/ha) and in series [3] (application rate 500 g/ha) were 100%, 90% and 100%, respectively.
On to `Cn1nc(C(F)(F)F)c(C(F)(F)F)c1-n1cc(-c2ccc(Cl)c(C(=O)NCCF)c2)cn1` [Ic-168], for which the efficacy in % in series [1] (application rate 100 g/ha) is 100%; in series [2] (application rate 100 g/ha), 100%; in series [3] (application rate 100 g/ha) it was 83%. In addition, in series [4], the logP worked out at 3.24.
For the molecule `CCOC1(NC(=O)c2cc(-c3cnn(-c4c(C(F)(F)F)c(C(F)(F)C(F)(F)F)nn4C)c3)ccc2Cl)CC1` [Ic-176], the efficacy in % in series [1] (application rate 500 g/ha), in series [2] (application rate 500 g/ha) and in series [3] (application rate 500 g/ha) was 100% throughout. The molecule further displayed a logP in series [4] of 4.08.
As for `Cn1nc(C(F)(F)C(F)(F)F)c(C(F)(F)F)c1-n1cc(-c2ccc(Cl)c(C(=O)NC3CC3(Cl)Cl)c2)cn1` (stereo not shown) [Ic-184], the efficacy in % in series [1] (application rate 500 g/ha), in series [2] (application rate 500 g/ha) and in series [3] (application rate 500 g/ha) was 100% in each case. The logP in series [4] was 4.34.
In the case of `Cn1nc(C(F)(F)C(F)(F)F)c(C(F)(F)F)c1-n1cc(-c2ccc(Cl)c(C(=O)NC3(C#N)CC3)c2F)cn1` [Ic-107], the efficacy in % in series [1] (application rate 500 g/ha), in series [2] (application rate 500 g/ha) and in series [3] (application rate 500 g/ha) was 100% throughout. In addition, the “efficacy (dead or moribund fleas)” value in series [5] (application rate 1 μg/cm^2) and in series [5] (application rate 5 μg/cm^2) was 100% throughout.
In the case of `Cn1nc(C(F)(F)C(F)(F)F)c(C(F)(F)F)c1-n1cc(-c2ccc(Cl)c(C(=O)NC3CCC3[S+](C)[O-])c2)cn1` (stereo not shown) [Ic-125], the efficacy in % in series [1] (application rate 100 g/ha) came to 100%; in series [2] (application rate 100 g/ha) it was 100%; in series [3] (application rate 100 g/ha), 83%. In addition, the logP in series [4] was determined as 3.17.
For the molecule `Cn1nc(C(F)(F)F)c(C(F)(F)F)c1-n1cc(-c2ccc(Cl)c(C(=O)NCC(F)F)c2)cn1` [Ic-170], the efficacy in % in series [1] (application rate 100 g/ha), in series [2] (application rate 100 g/ha) and in series [3] (application rate 100 g/ha) was 100% in each case. Also, the logP in series [4] came out at 3.43.
`C#CC(C)NC(=O)c1cc(-c2cnn(-c3c(C(F)(F)F)c(C(F)(F)C(F)(F)F)nn3C)c2)ccc1Cl` (stereo not shown) [Ic-193]: the efficacy in % in series [1] (application rate 500 g/ha), in series [2] (application rate 500 g/ha) and in series [3] (application rate 500 g/ha) was 100% each time. In series [4], this molecule yielded a logP of 3.97.
Regarding `Cn1nc(C(F)(F)C(F)(F)F)c(C(F)(F)F)c1-n1cc(-c2cc(C(=O)NC3CC3)cc3c2OC(F)(F)O3)cn1` [Ic-171], the efficacy in % in series [1] (application rate 500 g/ha) worked out at 100%; in series [2] (application rate 500 g/ha), 90%; in series [3] (application rate 500 g/ha), 100%.
In series [2] (application rate 100 g/ha), `Cc1nn(-c2c(C(F)(F)F)c(C(F)(F)C(F)(F)F)nn2C)c(C)c1-c1ccc(Cl)c(C(=O)NC2CC2)c1` [Ic-9] gave an efficacy in % of 90%. In series [4], this molecule showed a logP of 4.02.
Regarding `CCOC1C(C)C1NC(=O)c1cc(-c2cnn(-c3c(C(F)(F)F)c(C(F)(F)C(F)(F)F)nn3C)c2)ccc1Cl` (stereo not shown) [Ic-183], the efficacy in % in series [1] (application rate 500 g/ha), in series [2] (application rate 500 g/ha) and in series [3] (application rate 500 g/ha) was 100% each time. Further, the logP in series [4] is 4.34.
On to `Cn1nc(C(F)(F)F)c(C(F)(F)F)c1-n1cc(-c2ccc(Cl)c(C(=O)Nc3ccccc3)c2)cn1` [Ic-135], for which the efficacy in % was found to be 83% in series [1] (application rate 100 g/ha), 100% in series [2] (application rate 100 g/ha) and 100% in series [3] (application rate 100 g/ha). In series [4], this molecule came in with a logP of 4.1.
Consider `Cn1nc(C(F)(F)C(F)(F)F)c(C(F)(F)F)c1-n1cc(-c2ccc(Cl)c(C(=O)NC3CCC3S(C)(=O)=O)c2)cn1` (stereo not shown) [Ic-124], for which the efficacy in % in series [1] (application rate 100 g/ha), in series [2] (application rate 100 g/ha) and in series [3] (application rate 100 g/ha) was 100% in each case. The logP in series [4] is recorded as 3.47.
On to `CC#CC(C)NC(=O)c1cc(-c2cnn(-c3c(C(F)(F)F)c(C(F)(F)C(F)(F)F)nn3C)c2)ccc1Cl` (stereo not shown) [Ic-198], for which the efficacy in % in series [1] (application rate 500 g/ha), in series [2] (application rate 500 g/ha) and in series [3] (application rate 500 g/ha) was 100% each time. In series [4], the logP is 4.27.
On to `Cn1nc(C(F)(F)C(F)(F)F)c(C(F)(F)F)c1-n1cc(-c2ccc([S+](C)[O-])c(C(=O)NC3CC3)c2)cn1` (stereo not shown) [Ic-189], for which the efficacy in % in series [1] (application rate 100 g/ha) and in series [2] (application rate 100 g/ha) was 100% in each case. This molecule gave a logP in series [4] of 3.19.
Take `Cn1nc(C(F)(F)C(F)(F)F)c(C(F)(F)F)c1-n1cc(-c2ccc(Cl)c(C(=O)NC3CCC3C[S+](C)[O-])c2)cn1` (stereo not shown) [Ic-123]: in series [2] (application rate 100 g/ha), the efficacy in % is given as 100%. This molecule returned a log partition coefficient (logP) in series [4] of 3.09.
Consider `Cn1nc(C(F)(F)F)c(CO)c1-n1cc(-c2ccc(Cl)c(C(=O)NC3(C#N)CC3)c2)cn1` [Ic-104], for which the efficacy in % in series [1] (application rate 100 g/ha) and in series [2] (application rate 100 g/ha) was 100% in each case. In addition, the logP in series [4] is on record as 2.13.
With `Cn1nc(C(F)(F)F)c(CO)c1-n1cc(-c2ccc(Cl)c(C(=O)NC3CC3)c2)cn1` [Ic-69], the values for the efficacy in % in series [1] (application rate 500 g/ha) and in series [2] (application rate 500 g/ha) were 83% and 90%, respectively. Also, the logP in series [4] was determined as 2.15.
Consider `Cn1nc(C(F)(F)F)c(C(F)(F)F)c1-n1cc(-c2ccc(Cl)c(C(=O)NCC(F)(F)F)c2)cn1` [Ic-169], for which the efficacy in % in series [1] (application rate 100 g/ha), in series [2] (application rate 100 g/ha) and in series [3] (application rate 100 g/ha) was 100% in each case. Also, in series [4], the logP came to 3.71.
